Values after ≈ are worked out from the molar mass of the structure shown. Values joined by “and” are separate entries in the source; they are usually repeats but may differ in a detail not shown here. Equal entries are not always repeated. “Also recorded” adds a separate entry of the source.
Legend:
[1] = Preliminary solubility test: estimated solubility at RT by visual observation; format: physicochemical
Description: The solubility of Compound 1 (starting material) was estimated at RT in 18 single solvents and 6 solvent mixtures by visual observation. Approximately 5 mg solids were weighed into 8 mL glass vial, and then solvent was added stepwise until solids were dissolved completely or a total of solvent volume reached 5 mL. […] The solubility was estimated and for reference only.

[2] = Polymorph screening (slurry conversion, cooling, evaporation, anti-solvent, cyclic heating-cooling, salt break); conditions: about 20 mg in 1 mL
Description: Form I was obtained from most polymorph screening experiments. […]
Cyclic heating-cooling experiments were carried out in Crystal 16 Parallel Crystallizer. About 20 mg of Compound 1 (starting material) was added into 1 mL solvents, and a heating-cooling program was performed: • 1. Equilibrated first at 20° C., and heated to 75 or 100° C. at 0.2° C./min (the elevated temperature is set according to boiling point of solvent). • 2. Held at 75 or 100° C. for 1 h. • 3. Cooled to 20° C. at 0.2° C./min and hold for 1 h. • 4. Repeated the above procedures once.
Turbidimeter from Crystal 16 recorded if solids were completely dissolved during heating. Form I was obtained in most solvent systems. […]

[3] = Mechanical stability of Form I (manual grinding); format: physicochemical; conditions: ground by pestle and mortar for about 1 minute and 5 minutes
Description: Appropriate amount of Form I was manually ground by pestle and mortar for about 1 minute and 5 minutes, respectively. The ground samples were analyzed by XRPD.

[4] = Solid-state stability at 60° C. (capped) and 40° C./75% RH (open); format: physicochemical
Description: (capped) and 40° C./75% RH (open) for 7 days. Duplicate samples were prepared at each condition. The stability sample was dissolved in diluent to prepare solution at ˜1 mg/mL for HPLC purity analysis. Solid samples were analyzed by XRPD to check the crystal form. […] (capped) and 40° C./75% RH (open) for at least 7 days.

[5] = pH solubility profile of Form I in pH buffers; format: physicochemical; conditions: for XRPD 4 h / XRPD 24 h: wet cake
Description: Different pH buffers (pH 1.0, 3.0, 5.0, 6.8 and 9.0) were prepared by method in Table 18. Appropriate amount of Form I was added into 1.4 mL of different buffers (pH=1.0, 3.0, 5.0, 6.8 and 9.0) to make suspensions. The suspensions were kept shaking with a speed of 1000 rpm at 25° C. for 4 and 24 hours. At each point, the suspensions were centrifuged, and the supernatant was inspected by UPLC/pH, and the wet cakes were analyzed by XRPD. Duplicate samples were prepared.

[6] = Stability relationship study (slurry turnover of Form II); format: physicochemical
Description: Form II was prepared via heating starting material to 220° C. in DSC pans. Then, about 15 mg of Form II was stirred in 0.5 mL of selected solvent at desired temperatures for 2 and 5 days. Solid samples were collected by filtration and characterized by XRPD.

[7] = DVS test (dynamic vapor sorption, hygroscopicity); format: physicochemical; conditions: for hygroscopicity (in words): DVS
Description: All the three target forms remained no change after DVS test.
Dynamic Vapor Sorption (DVS) was used to study hygroscopicity on Model Q5000 SA (TA Instruments, New Castle, DE). A sample (1-10 mg) was placed in an aluminum pan and loaded on the sample side of the twin pan balance. The water sorption and desorption were studied as a function of relative humidity (RH) at 25° C. in 10% RH increments from 0% RH to 90% RH and then back to 0%. […] Data analysis was performed using Universal Analysis 2000 Version 4.7A (TA Instruments, New Castle, DE).

[8] = Solubility in bio-relevant media (SGF, FaSSIF, FeSSIF) and water; format: physicochemical; conditions: for XRPD 0.5 h / XRPD 2 h / XRPD 24 h: filter cake; for Solubility 0.5 h / Solubility 2 h / Solubility 24 h: average n=2
Description: At 0.5, 2 and 24 hours, about 0.6 mL of each suspension was filtered, the filtrate was analyzed by HPLC and pH meter, and the filter cake was analyzed by XRPD. The samples were prepared in duplicate (n=2) per condition. Average value (n=2) was presented.
HPLC analysis was performed with an Agilent HPLC 1260 series instrument.

[9] = aqueous buffer, thermodynamic from solid, pH 3.0 buffer (25 mM citrate), initial pH 3.01, solid loading 5 mg/mL, 25° C.
[10] = aqueous buffer, thermodynamic from solid, pH 5.0 buffer (25 mM citrate), initial pH 4.95, solid loading 5 mg/mL, 25° C.
[11] = aqueous buffer, thermodynamic from solid, pH 6.8 buffer (25 mM phosphate), initial pH 6.78, solid loading 5 mg/mL, 25° C.
[12] = aqueous buffer, thermodynamic from solid, pH 9.0 buffer (25 mM DEA), initial pH 9.01, solid loading 5 mg/mL, 25° C.
[13] = pH 1.0 buffer, initial pH 1.01, solid loading 60 mg/mL
[14] = pH 3.0 buffer, initial pH 3.01, solid loading 5 mg/mL
[15] = pH 5.0 buffer, initial pH 4.95, solid loading 5 mg/mL
[16] = pH 6.8 buffer, initial pH 6.78, solid loading 5 mg/mL
[17] = pH 9.0 buffer, initial pH 9.01, solid loading 5 mg/mL
[18] = simulated gastric fluid, thermodynamic from solid, pH 1.0 buffer (0.1N HCl), initial pH 1.01, solid loading 60 mg/mL, 25° C.
[19] = FaSSIF, initial pH 6.45, 37° C.
[20] = FaSSIF, initial pH 6.45, filtrate
[21] = FeSSIF, initial pH 4.99, 37° C.
[22] = FeSSIF, initial pH 4.99, filtrate
[23] = Water, initial pH 5.41, filtrate

## C[C@@H]1[C@@H](Oc2ccc(C(=O)NC3CC3)nc2)CN1Cc1cnc2cc(Cl)c(=O)[nH]c2c1 [Compound 1, 5-(((2R,3S)-1-((7-chloro-6-oxo-5,6-dihydro-1,5-naphthyridin-3-yl)methyl)-2-methylazetidin-3-yl)oxy)-N-cyclopropylpicolinamide]
[1]; DCM/MeOH (1/1), organic solvent or mixture, thermodynamic from solid, DCM/MeOH (1/1), read-out: Solubility
  solubility: 5000 to 20000 µg/mL (≈ 11400 to 45500 µM)
[1]; DCM/MeOH (4/1), listed as Compound 1 (starting material)
  solubility: 50~100 mg/mL
[1]; DMSO, DMF, DMAc (each), organic solvent or mixture, thermodynamic from solid, DMSO, DMF, DMAc, read-out: Solubility
  solubility: 20000 to 50000 µg/mL (≈ 45500 to 114000 µM)
[1]; organic solvent or mixture, thermodynamic from solid, Acetone/Water (9/1), ACN/Water (9/1), MeOH/Water (9/1), Acetone/EtOH (1/1), THF, MeOH, read-out: Solubility
  solubility: 1000 to 5000 µg/mL (≈ 2270 to 11400 µM)
[1]; water, thermodynamic from solid, EtOH, IPA, Acetone, EtOAc, ACN, Water, DCM, 2-MeTHF, Toluene, MTBE, MEK, Heptane, read-out: Solubility
  solubility: < 1000 µg/mL
[2]; 2-MeTHF, 75° C.
  Hot Dissolution: Yes
[2]; ACN/Water (9/1), 75° C.
  Hot Dissolution: No
[2]; DMAc/Toluene (1/2), 100° C.
  Hot Dissolution: Yes
[2]; EtOH, 75° C.
  Hot Dissolution: Yes
[2]; MEK, 75° C.
  Hot Dissolution: No
[2]; MIBK, 100° C.
  Hot Dissolution: No
[2]; n-Butanol/Anisole (1/1), 100° C.
  Hot Dissolution: Yes

## C[C@@H]1[C@@H](Oc2ccc(C(=O)NC3CC3)nc2)CN1Cc1cnc2cc(Cl)c(=O)[nH]c2c1 [Freebase Form I, 5-(((2R,3S)-1-((7-chloro-6-oxo-5,6-dihydro-1,5-naphthyridin-3-yl)methyl)-2-methylazetidin-3-yl)oxy)-N-cyclopropylpicolinamide]
[3]
  crystal form after grinding (XRPD): remained unchanged with little crystallinity decrease
[4]; 40° C./75% RH (open), 7 days
  XRPD - 7 d: Unchanged
[4]; 60° C. (capped) and 40° C./75% RH (open), 7 days
  physical and chemical stability: physically and chemically stable
[4]; 60° C. (capped), 7 days
  XRPD - 7 d: Unchanged
[4]; before storage, HPLC
  Initial Purity: 99.16 area %
[5]; [9]
  solubility at 4 h: 2460 µg/mL (≈ 5600 µM)
  solubility at 24 h: 784 µg/mL (≈ 1780 µM)
[5]; [10]
  solubility at 4 h: 83 µg/mL (≈ 189 µM)
  solubility at 24 h: 84 µg/mL (≈ 191 µM)
[5]; [11]
  solubility at 4 h: 8 µg/mL (≈ 18.2 µM)
  solubility at 24 h: 8 µg/mL (≈ 18.2 µM)
[5]; [12]
  solubility at 4 h: 14 µg/mL (≈ 31.8 µM)
  solubility at 24 h: 14 µg/mL (≈ 31.8 µM)
[5]; pH 1, simulated gastric fluid, thermodynamic from solid, 0.1 N HCl, 25° C., read-out: solubility (highest)
  solubility: > 40000 µg/mL
[5]; [13]
  pH 4 h: 2.48
  pH 24 h: 2.38
[5]; pH 1.0 buffer
  XRPD 4 h: Form I
  XRPD 24 h: Form I
[5]; pH 3 buffer at 24 h
  form change of the solid: converted into Citrate Form I
[5]; [14]
  pH 4 h: 3.30
  pH 24 h: 3.45
[5]; pH 3.0 buffer
  XRPD 4 h: Form I
  XRPD 24 h: Citrate Form I
[5]; [15]
  pH 4 h: 4.88
  pH 24 h: 4.90
[5]; pH 5.0 buffer
  XRPD 4 h: Form I
  XRPD 24 h: Form I
[5]; pH 6.8 and 9 buffers, 25° C.
  solubility (in words): low
[5]; [16]
  pH 4 h: 6.75
  pH 24 h: 6.79
[5]; pH 6.8 buffer
  XRPD 4 h: Form I
  XRPD 24 h: Form I
[5]; [17]
  pH 4 h: 9.16
  pH 24 h: 9.15
[5]; pH 9.0 buffer
  XRPD 4 h: Form I
  XRPD 24 h: Form I
[5]; [18]
  solubility at 4 h: > 44400 µg/mL
  solubility at 24 h: > 44500 µg/mL
[5]; the other conditions (other buffers and time points)
  form change of the solid: remained unchanged
[1]; DCM/MeOH (4/1, v/v), organic solvent or mixture, thermodynamic from solid, DCM/MeOH (4/1), read-out: Solubility
  solubility: > 50000 µg/mL
[1]; organic solvent or mixture, thermodynamic from solid, most solvent systems, read-out: Solubility
  solubility: < 5000 µg/mL
[6]; anhydrates Form I vs Form II
  relative stability of the crystal form: more stable anhydrate at RT to 80 °C; also recorded: Stable below 80 °C
[7]
  hygroscopicity (in words): slightly hygroscopic
[7]; listed as Form I
  hygroscopicity (in words): slightly hygroscopic
[7]; XRPD after DVS
  crystal form after DVS test: remained unchanged
[7]; at 80% RH
  water uptake: 0.5%
[7]; at 80% RH, listed as Form I
  water uptake: 0.5% and < 1%
[7]; at 90% RH
  water uptake: 0.6%
[7]; at 90% RH, listed as Form I
  water uptake: 0.6%
[8]; FaSSIF
  XRPD 0.5 h: Unchanged
  XRPD 2 h: Unchanged
  XRPD 24 h: Unchanged
[8]; [19]
  Solubility 0.5 h: 13 µg/mL (≈ 29.6 µM)
  Solubility 2 h: 15 µg/mL (≈ 34.1 µM)
  Solubility 24 h: 15 µg/mL (≈ 34.1 µM)
[8]; [20]
  pH 0.5 h: 6.47
  pH 2 h: 6.39
  pH 24 h: 6.44
[8]; FeSSIF
  XRPD 0.5 h: Unchanged
  XRPD 2 h: Unchanged
  XRPD 24 h: Unchanged
[8]; [21]
  Solubility 0.5 h: 82 µg/mL (≈ 186 µM)
  Solubility 2 h: 83 µg/mL (≈ 189 µM)
  Solubility 24 h: 80 µg/mL (≈ 182 µM)
[8]; [22]
  pH 0.5 h: 5.01
  pH 2 h: 4.98
  pH 24 h: 4.82
[8]; SGF
  XRPD 0.5 h, 2 h, 24 h: Clear
[8]; SGF, 37 °C, pH 1.23, simulated gastric fluid, thermodynamic from solid, SGF, 37° C., read-out: solubility in SGF
  solubility: > 5000 µg/mL
[8]; SGF, initial pH 1.23, 37° C.
  Solubility 0.5 h, 2 h, 24 h: >5000 µg/mL
[8]; SGF, initial pH 1.23, filtrate
  pH 0.5 h: 1.33
  pH 2 h: 1.20
  pH 24 h: 1.28
[8]; Water
  XRPD 0.5 h: Unchanged
  XRPD 2 h: Unchanged
  XRPD 24 h: Unchanged
[8]; Water, initial pH 5.41, 37° C.
  Solubility 0.5 h: 11 µg/mL (≈ 25 µM)
  Solubility 2 h: 11 µg/mL (≈ 25 µM)
  Solubility 24 h: 10 µg/mL (≈ 22.7 µM)
[8]; [23]
  pH 0.5 h: 5.93
  pH 2 h: 6.54
  pH 24 h: 7.54
[8]; XRPD of filter cake
  crystal form after solubility test: remained unchanged
[8]; media other than SGF (FaSSIF, FeSSIF, water), 37° C.
  solubility in the other media (in words): low solubility

## C[C@@H]1[C@@H](Oc2ccc(C(=O)NC3CC3)nc2)CN1Cc1cnc2cc(Cl)c(=O)[nH]c2c1 [Freebase Form II, 5-(((2R,3S)-1-((7-chloro-6-oxo-5,6-dihydro-1,5-naphthyridin-3-yl)methyl)-2-methylazetidin-3-yl)oxy)-N-cyclopropylpicolinamide]
[6]; ACN, 80° C.
  Slurry turnover output (XRPD) Day 2: Form I + II
  Slurry turnover output (XRPD) Day 5: Form I
[6]; Acetone, 50° C.
  Slurry turnover output (XRPD) Day 2: Form I
[6]; Acetone, RT
  Slurry turnover output (XRPD) Day 2: Form I
[6]; stirred at desired temperatures (RT to 80° C.) for 2 and 5 days
  form after slurry in selected solvents (XRPD): converted to Form I at all conditions

— patent publication US20240317746A1, “CRYSTALLINE FORMS OF AN AZETIDINE PARP1 INHIBITOR” (XinThera, Inc., priority 2023, published 2024)
